The values below are quoted from earlier work in patent US20240352228A1, “NOVEL FLAME RETARDANT” (Chemische Fabrik Budenheim KG, priority 2021, published 2024).

For the series the following is noted: general statement in description, no method given.

Take `Nc1nc(N)nc(N)n1` [melamine, Melamine]: the decomposition temperature is over 350 °C.
